Earlier results as cited in article PMC11431785, “From In Vitro Promise to In Vivo Reality: An Instructive Account of Infection Model Evaluation of Antimicrobial Peptides” (International Journal of Molecular Sciences, 2024).

Assays:
A. baumannii = settings: MHB, inoculum 5 × 10^5 CFU/mL, 20–22 h at 37 °C, 0.04% BSA and 0.002% acetic acid, duplicate; cited from earlier work
Excerpt: Table 1 Sequence and properties of peptides in this study. | column: MIC (μM) A. baumannii

[1] = system: 1BR3G human fibroblast cells; settings: cytotoxicity, RPMI 2% FBS, Cell Titer Blue, triplicate; cited from earlier work
Excerpt: Table 1 Sequence and properties of peptides in this study. | column: IC50 (μM)

[2] = human serum mixed 1:1 with peptide 1 mM in water, 37 °C with stirring, aliquots 0-1440 min, TCA precipitation, HPLC; cited from earlier work
Excerpt: Table 1 Sequence and properties of peptides in this study. | column: t1/2 (min) || In this work, we focus on crotalicidin (Ctn), a 34-residue AMP from the venom of Crotalus durissus terrificus, a South American pit viper. […] It is, however, slightly toxic to eukaryotic cells, including cancer cells, which makes it a good anticancer peptide (ACP) candidate. Virtual Ctn dissection with elastase yields two fragments, Ctn[1-14] and Ctn[15-34]. While the former (KRFKKFFKKVKKSV) retains the α-helical conformation of Ctn, it loses both the anticance ...

In the case of crotalicidin [Ctn], the “MIC (μM) A. baumannii” value (A. baumannii) is listed as 0.78 µM, the IC50 [1] is listed as 14.3 µM and the “t1/2” value [2] is listed as 1.18 h.
